Ends that are not written are not given here.
Tested on: hPSCs
Assay: RT-qPCR of pluripotency and germ-layer markers during differentiation with CPP-peptides (Supplementary Fig. 7b-e)
Format: cell-based, human
Settings: for Difference between means (B - A) ± SEM: P8 - P1; for BMP2 mRNA level (RT-qPCR) / BMP4 mRNA level (RT-qPCR) / CDH2 mRNA level (RT-qPCR) / CXCR4 mRNA level (RT-qPCR) / SNAI1 mRNA level (RT-qPCR) / TBXT mRNA level (RT-qPCR): Fig. s7d

Sequence: KKKWCRKKKSSADEKRYRALKRTAERELLMNA [P8]
- CXCR4 (RT-qPCR) (Day 0, replicate 1, Fig. s7e): 1.088
- CXCR4 (RT-qPCR) (Day 0, replicate 2, Fig. s7e): 0.7848
- CXCR4 (RT-qPCR) (Day 0, replicate 3, Fig. s7e): 1.127
- CXCR4 (RT-qPCR) (Day 3, replicate 1, Fig. s7e): 70.9428
- CXCR4 (RT-qPCR) (Day 3, replicate 2, Fig. s7e): 396.929
- CXCR4 (RT-qPCR) (Day 3, replicate 3, Fig. s7e): 186.896
- CXCR4 (RT-qPCR) (Day 5, replicate 1, Fig. s7e): 166.399
- CXCR4 (RT-qPCR) (Day 5, replicate 2, Fig. s7e): 221.471
- CXCR4 (RT-qPCR) (Day 5, replicate 3, Fig. s7e): 55.5295
- Difference between means (B - A) ± SEM (CXCR4 day 3): -395.9 ± 135.2
- Mean CXCR4 (RT-qPCR) (CXCR4 day 3, mean of n = 3, Fig. s7e): 218.3
- Difference between means (B - A) ± SEM (CXCR4 day 5): -733.3 ± 94.11
- Mean CXCR4 (RT-qPCR) (CXCR4 day 5, mean of n = 3, Fig. s7e): 147.8
- FOXA1 (RT-qPCR) (Day 0, replicate 1, Fig. s7e): 1.247
- FOXA1 (RT-qPCR) (Day 0, replicate 2, Fig. s7e): 1.413
- FOXA1 (RT-qPCR) (Day 0, replicate 3, Fig. s7e): 0.3396
- FOXA1 (RT-qPCR) (Day 3, replicate 1, Fig. s7e): 74.3757
- FOXA1 (RT-qPCR) (Day 3, replicate 2, Fig. s7e): 54.052
- FOXA1 (RT-qPCR) (Day 3, replicate 3, Fig. s7e): 82.1532
- FOXA1 (RT-qPCR) (Day 5, replicate 1, Fig. s7e): 512.006
- FOXA1 (RT-qPCR) (Day 5, replicate 2, Fig. s7e): 494.768
- FOXA1 (RT-qPCR) (Day 5, replicate 3, Fig. s7e): 555.597
- Difference between means (B - A) ± SEM (FOXA1 day 5): 207.3 ± 47.14
- Mean FOXA1 (RT-qPCR) (FOXA1 day 5, mean of n = 3, Fig. s7e): 520.8
- SOX2 difference between means (P8 - P1) ± SEM (Fig. s7b, mesoderm, day 4, P8 vs. P1): 0.07995 ± 0.0229
- SOX2 mRNA level (RT-qPCR), mean (Fig. s7b, mesoderm, day 4, mean of 3 replicates): 0.08192
- BMP2 mRNA level (RT-qPCR) (Day 0, replicate 1): 0.8054
- BMP4 mRNA level (RT-qPCR) (Day 0, replicate 1): 1.545
- CDH2 mRNA level (RT-qPCR) (Day 0, replicate 1): 1.016
- CXCR4 mRNA level (RT-qPCR) (Day 0, replicate 1): 0.9995
- SNAI1 mRNA level (RT-qPCR) (Day 0, replicate 1): 1.4406
- TBXT mRNA level (RT-qPCR) (Day 0, replicate 1): 1.3
- BMP2 mRNA level (RT-qPCR) (Day 0, replicate 2): 1.199
- BMP4 mRNA level (RT-qPCR) (Day 0, replicate 2): 0.6508
- CDH2 mRNA level (RT-qPCR) (Day 0, replicate 2): 0.7569
- CXCR4 mRNA level (RT-qPCR) (Day 0, replicate 2): 1.121
- SNAI1 mRNA level (RT-qPCR) (Day 0, replicate 2): 0.9418
- TBXT mRNA level (RT-qPCR) (Day 0, replicate 2): 0.8652
- BMP2 mRNA level (RT-qPCR) (Day 0, replicate 3): 0.9954
- BMP4 mRNA level (RT-qPCR) (Day 0, replicate 3): 0.8046
- CDH2 mRNA level (RT-qPCR) (Day 0, replicate 3): 1.227
- CXCR4 mRNA level (RT-qPCR) (Day 0, replicate 3): 0.8798
- SNAI1 mRNA level (RT-qPCR) (Day 0, replicate 3): 0.6176
- TBXT mRNA level (RT-qPCR) (Day 0, replicate 3): 0.8351
- BMP2 mRNA level (RT-qPCR) (Day 3, replicate 1): 1.1089
- BMP4 mRNA level (RT-qPCR) (Day 3, replicate 1): 41.4056
- CDH2 mRNA level (RT-qPCR) (Day 3, replicate 1): 19.486
- CXCR4 mRNA level (RT-qPCR) (Day 3, replicate 1): 784.151
- SNAI1 mRNA level (RT-qPCR) (Day 3, replicate 1): 12.8862
- TBXT mRNA level (RT-qPCR) (Day 3, replicate 1): 3854.3
- BMP2 mRNA level (RT-qPCR) (Day 3, replicate 2): 1.096
- BMP4 mRNA level (RT-qPCR) (Day 3, replicate 2): 50.4784
- CDH2 mRNA level (RT-qPCR) (Day 3, replicate 2): 21.455
- CXCR4 mRNA level (RT-qPCR) (Day 3, replicate 2): 774.595
- SNAI1 mRNA level (RT-qPCR) (Day 3, replicate 2): 13.1184
- TBXT mRNA level (RT-qPCR) (Day 3, replicate 2): 4302.87
- BMP2 mRNA level (RT-qPCR) (Day 3, replicate 3): 1.333
- BMP4 mRNA level (RT-qPCR) (Day 3, replicate 3): 53.6277
- CDH2 mRNA level (RT-qPCR) (Day 3, replicate 3): 17.5345
- CXCR4 mRNA level (RT-qPCR) (Day 3, replicate 3): 641.469
- SNAI1 mRNA level (RT-qPCR) (Day 3, replicate 3): 12.7742
- TBXT mRNA level (RT-qPCR) (Day 3, replicate 3): 4804.52
- BMP2 mRNA level (RT-qPCR) (Day 4, replicate 1): 0.2478
- BMP4 mRNA level (RT-qPCR) (Day 4, replicate 1): 31.2396
- CDH2 mRNA level (RT-qPCR) (Day 4, replicate 1): 14.5509
- CXCR4 mRNA level (RT-qPCR) (Day 4, replicate 1): 668.803
- SNAI1 mRNA level (RT-qPCR) (Day 4, replicate 1): 16.3401
- TBXT mRNA level (RT-qPCR) (Day 4, replicate 1): 2083
- BMP2 mRNA level (RT-qPCR) (Day 4, replicate 2): 0.261
- BMP4 mRNA level (RT-qPCR) (Day 4, replicate 2): 27.7899
- CDH2 mRNA level (RT-qPCR) (Day 4, replicate 2): 13.2223

Reference: PMC10762078, “Role of UPF1-LIN28A interaction during early differentiation of pluripotent stem cells” (Nature Communications, 2024)
